Measurements taken from patent publication US8778342B2, “Antibody therapy” (Immunomedics, Inc., priority 2002, dated 2014).
Entries after “also recorded” stand apart in the source; their conditions may differ.

Legend:
[1] = test system: TT (human medullary thyroid) tumor cells; format: in vivo; conditions: DTIC 75 μg/dose days 2, 3, 4, hMN-14 100 μg/dose from day 2; for mice with no palpable tumor at 7 weeks: 10 mice/group
[2] = test system: TT MTC xenografts; experiment: Chemotherapy of TT MTC xenografts in nude mice; format: in vivo, human; conditions: for Mean survival time: untreated control 4 weeks; for growth inhibition of TT xenografts, drug given individually: doses of FIG. 3
[3] = test system: TT tumors; experiment: Naked anti-CEA MAb alone on growth of TT tumors in nude mice; conditions: for tumors less than 0.5 cm^3: at day-37, 0.5 mg/mouse weekly x4, untreated 40%
[4] = test system: GW-39 human colorectal tumors; experiment: Survival in GW-39 intrapulmonary micrometastasis model in nude mice; conditions: for increase of median survival time: FIG. 18, single agent versus untreated
[5] = molecular target: T1, CEA (Homo sapiens, UniProt P06731); conditions: Hansen et al., Cancer 71:3478 (1993); cited from earlier work
T1 sequence (P06731 35-676): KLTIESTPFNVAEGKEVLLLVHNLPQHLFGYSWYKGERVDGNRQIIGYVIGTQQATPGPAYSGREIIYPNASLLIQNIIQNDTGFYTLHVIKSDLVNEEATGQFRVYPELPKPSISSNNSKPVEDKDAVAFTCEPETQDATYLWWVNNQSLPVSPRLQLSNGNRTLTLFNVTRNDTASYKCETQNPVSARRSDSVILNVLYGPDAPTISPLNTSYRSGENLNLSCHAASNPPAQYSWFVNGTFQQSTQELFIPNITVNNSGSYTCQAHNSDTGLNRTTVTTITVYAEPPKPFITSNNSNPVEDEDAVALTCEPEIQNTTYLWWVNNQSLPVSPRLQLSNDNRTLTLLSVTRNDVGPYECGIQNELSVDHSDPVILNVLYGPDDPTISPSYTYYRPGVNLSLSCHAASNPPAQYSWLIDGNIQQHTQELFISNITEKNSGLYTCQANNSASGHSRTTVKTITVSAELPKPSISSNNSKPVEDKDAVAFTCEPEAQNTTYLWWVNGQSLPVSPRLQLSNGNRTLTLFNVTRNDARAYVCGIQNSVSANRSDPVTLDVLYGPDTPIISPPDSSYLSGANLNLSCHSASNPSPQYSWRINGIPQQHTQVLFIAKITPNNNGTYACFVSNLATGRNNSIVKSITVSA

[6] = molecular target: T2, normal cross reactive antigen, NCA (Homo sapiens, UniProt P40199); conditions: Hansen et al., Cancer 71:3478 (1993); cited from earlier work
T2 sequence (P40199 35-320): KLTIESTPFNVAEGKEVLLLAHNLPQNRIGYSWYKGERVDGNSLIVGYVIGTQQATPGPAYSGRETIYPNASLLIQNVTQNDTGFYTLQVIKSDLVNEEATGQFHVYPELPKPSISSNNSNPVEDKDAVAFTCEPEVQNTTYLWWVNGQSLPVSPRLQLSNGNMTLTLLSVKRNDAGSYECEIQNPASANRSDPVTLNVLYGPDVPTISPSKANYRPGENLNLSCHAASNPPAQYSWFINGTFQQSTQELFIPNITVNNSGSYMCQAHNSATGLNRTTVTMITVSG

[7] = test system: meconium antigen; conditions: Hansen et al., Cancer 71:3478 (1993); cited from earlier work
[8] = test system: TT cells; experiment: Flow cytometry reactivity with TT cells
[9] = FIG. 16 advanced colon cancer model, single agents

Molecule: CN(C)/N=N/c1[nH]cnc1C(N)=O [DTIC, dacarbazine, reference compound]
- Mean tumor volumes at 7 weeks [1]: 0.284 ± 0.197 cm^3
- mice with no palpable tumor at 7 weeks [1]: 1/10
- Mean survival time [2]: 11 weeks

Molecule: COc1cccc2c1C(=O)c1c(O)c3c(c(O)c1C2=O)C[C@@](O)(C(=O)CO)C[C@@H]3O[C@H]1C[C@H](N)[C@H](O)[C@H](C)O1 [doxorubicin]
- growth inhibition of TT xenografts, drug given individually [2]: significant growth inhibition

Molecule: O=P1(N(CCCl)CCCl)NCCCO1 (stereo not shown) [cyclophosphamide]
- growth inhibition of TT xenografts, drug given individually [2]: significant growth inhibition
- Log rank analysis of survival versus the untreated group ([2]; individual drugs): significant difference
- Mean survival time [2]: 8 weeks

Molecule: hMN-14: humanized (CDR-grafted) Class III anti-CEA monoclonal antibody MN-14, naked
- Mean tumor volumes at 7 weeks [1]: 0.899±0.545 cm^3
- mice with no palpable tumor at 7 weeks [1]: 0/10
- delay / inhibition of tumor growth ([1]; nude mice): Significant delays in tumor growth; also recorded: significant effect on inhibiting tumor growth
- mean tumor sizes versus untreated animals ([3]; 0.5 mg single i.v. injection eleven days post tumor cell injection): no significant differences
- tumor growth versus untreated group ([3]; 0.5 mg single i.v. injection on day-1 post tumor injection): significant growth delay
- inhibition of tumor size compared to the untreated animals ([3]; 0.5 mg single i.v. injection one day post tumor cell injection, between day-32 and day-60): 64-70%
- tumors less than 0.5 cm^3 [3]: 87%
- effect on survival [4, 9]: No effect
- effect on survival ([4]; FIG. 17 reduced tumor burden model, 5% tumor cell suspension): no apparent effect
- increase of median survival time ([4]; 5% tumor cell suspension): 21%
- efficacy on high (interferon-gamma induced) versus low CEA-expressing tumor cells ([4]; FIG. 21): improved efficacy

Molecule: hLL2: negative control humanized MAb, anti-CD22 [reference compound]
- tumors less than 0.5 cm^3 [3]: 29%

Molecule: CC[C@]1(O)C[C@H]2CN(CCc3c([nH]c4ccccc34)[C@@](C(=O)OC)(c3cc4c(cc3OC)N(C=O)[C@H]3[C@@](O)(C(=O)OC)[C@H](OC(C)=O)[C@]5(CC)C=CCN6CC[C@]43[C@@H]65)C2)C1 [vincristine]
- growth inhibition of TT xenografts, drug given individually [2]: not

Molecule: CCc1c2c(nc3ccc(OC(=O)N4CCC(N5CCCCC5)CC4)cc13)-c1cc3c(c(=O)n1C2)COC(=O)[C@]3(O)CC [CPT-11, irinotecan]
- median survival time ([4]; 10% GW-39 cell suspension, treatment from day 0, CPT-11 10% MTD (80 μg/d x 5 days), hMN14 100 μg/d, untreated 56 days): 63 days
- median survival ([4]; FIG. 16 advanced colon cancer model, hMN-14 100 μg/day from day 0, CPT-11 60 μg/day over 5 days): 63 days
- effect on survival [4, 9]: only a modest effect
- median survival time ([4]; FIG. 17 reduced tumor burden model, 5% tumor cell suspension, dosages of Example 14): 70 days
- increase of median survival time ([4]; 5% tumor cell suspension): 76%
- median survival ([4]; pretreatment study, CPT-11 on day 0, alone or co-treatment with hMN-14, untreated 35 days): 63 days
- median survival ([4]; pretreatment study, CPT-11 on day 3, alone or after 3-day pretreatment with hMN-14, untreated 35 days): 70 days

B1: murine MN-14: murine Class III anti-CEA MAb, reacting with CEA, unreactive with NCA and meconium antigen (antibody, listed as Mus sp., V domains shown)
VH: EVKLLESGGGLVQSGGSLKLSCAASGFDFTTYWMSWVRQAPGKGLEWIGEIHPDSSTINYAPSLKDKFIVSRDNAKNTLYLQMSKVRSEDTALYYCASLYFGFPWFAYWGQGTPVTVSA
VL: EIQLTQSHKMMSTSVGDRVSITCKASQDVGTSVAWYQQRPGQSPKLLIYWTSTRHTGVPDRFTGSVSGTDFTLTITNVQSEDLADYFCQQYSLYRSFGGGTKLEIK
modifications: constant regions
- reactivity with CEA [5]: reacting with CEA
- reactivity with NCA [6]: unreactive
- reactivity with meconium antigen [7]: unreactive
- reactivity with TT cells by flow cytometry [8]: react with TT cells
